Test results: patent EP0335164A2, “Ester derivatives of neopentanol, process for their preparation and their use as medicines” (Merckle GmbH, priority 1988, dated 1989)
Marks after values point to notes of the source that are not given here.

Key:
[1] = tested on: Kaolin-induziertes Pfotenoedem; assay: Kaolin-induced rat paw oedema after dermal administration; format: in vivo, Ratte; conditions: 10 mg/kg standard acid, esters 12.3-13.2 mg/kg equivalent to 10 mg/kg acid, applied 30 min before and 150 min after kaolin; for % Hemmung 2h: 2 h after kaolin injection; for % Hemmung 4h: 4 h after kaolin injection; for % Hemmung 6h: 6 h after kaolin injection
Excerpt: (§1) Die entzündungshemmende Wirkung wurde mit ausgewählten Verbindungen jedes Estertyps im Vergleich zum jeweiligen Standard im konventionellen Rattenpfotenoedemtest nach oraler Applikation untersucht. Die Ergebnisse sind in Tab. 3 zusammengefaßt. Weiterhin wurde mit einigen Verbindungen die entzündungshemmende Aktivität nach dermaler Applikation am Kaolin-induzierten Pfotenoedem der Ratte untersucht. Für den Test wurden die Substanzen in einer Mischung aus Ethanol/Aceton/Dimethylacetamid gelöst und im konstanten Volumen 30 Min. vor und 150 Min. nach Injektion von Kaolin (0,1 ml 10%-ige Suspension in Wasser) appliziert. Das Pfotenvolumen wurde 2, 4 und 6 Stunden nach Kaolininjektion gemessen. Die Ergebnisse sind in Tabelle 4 zusammengefaßt.

Pfotenoedem = assay: Rat paw oedema test after oral administration (anti-inflammatory effect); format: in vivo, Ratte
Excerpt: as §1

Row | SMILES | % Hemmung 2h [1] | % Hemmung 4h [1] | % Hemmung 6h [1] | Hemmeffekt % (Pfotenoedem; 50 mg/kg) [%] | further results
1 | O=C(O)c1ccccc1Nc1cccc(C(F)(F)F)c1 [Flufenaminsäure, N-(α,α,α-Trifluor-m-tolyl)anthranilsäure, reference compound] | 0% | 19.4** % | 23.2** % | 33 | 
2 | CC(C(=O)OCC(C)(C)CO)c1cccc(C(=O)c2ccccc2)c1 (centres unmarked) [Beispiel 5] |  |  |  |  | Hemmeffekt % (Pfotenoedem; 10 mg/kg): 33%
3 | CC(C(=O)O)c1cccc(C(=O)c2ccccc2)c1 (centres unmarked) [Ketoprofen, 2-(3-Benzoylphenyl)-propionsäure, reference compound] |  |  |  |  | Hemmeffekt % (Pfotenoedem; 38 mg/kg): 44%
4 | O=C(O)Cc1cn(-c2ccccc2)nc1-c1ccc(Cl)cc1 [Lonazolac, 3-(4-Chlorphenyl)-1-phenyl-1H-pyrazol-4-essigsäure, reference compound] | 0% | 3.1% | 30.0*** % |  | Hemmeffekt % (Pfotenoedem; 25 mg/kg): 38%
5 | CC(C(=O)O)c1ccc(C(=O)c2cccs2)cc1 (centres unmarked) [Suprofen, 2-[4-(2-Thenoyl)phenyl]-propionsäure, reference compound] |  |  |  | 20 | 
6 | CC(C)Cc1ccc(C(C)C(=O)OCC(C)(C)C)cc1 (centres unmarked) [Beispiel 17] |  |  |  |  | Hemmeffekt % (Pfotenoedem; 25 mg/kg): 43%
7 | CC(C)Cc1ccc(C(C)C(=O)OCC(C)(C)CO)cc1 (centres unmarked) [Beispiel 11] |  |  |  | 47 | 
8 | O=C(O)Cc1ccccc1Nc1c(Cl)cccc1Cl [Diclofenac, 2-[(2,6-Dichlorphenyl)amino]-phenylessigsäure, reference compound] | 0% | 36.2*** % | 37.6*** % |  | Hemmeffekt % (Pfotenoedem; 100 mg/kg): 38%
9 | CC(C(=O)OCC(C)(C)C)c1ccc(-c2ccccc2)c(F)c1 (centres unmarked) [Beispiel 14] |  |  |  |  | Hemmeffekt % (Pfotenoedem; 1 mg/kg): 35%
10 | CC(C(=O)OCC(C)(C)C)c1ccc(C(=O)c2cccs2)cc1 (centres unmarked) [Beispiel 15] |  |  |  |  | Hemmeffekt % (Pfotenoedem; 5 mg/kg): 37%
11 | CC(C)(C)COC(=O)COC(=O)Cc1ccccc1Nc1c(Cl)cccc1Cl [Beispiel 24] |  |  |  | 33 | 
12 | CC(C(=O)OCC(C)(C)CO)c1ccc(C(=O)c2cccs2)cc1 (centres unmarked) [Beispiel 9] |  |  |  |  | Hemmeffekt % (Pfotenoedem; 10 mg/kg): 34%; Hemmeffekt % (Pfotenoedem; 25 mg/kg): 43%
13 | CC(C(=O)OCC(=O)OCC(C)(C)C)c1ccc(-c2ccccc2)c(F)c1 (centres unmarked) [Beispiel 4] |  |  |  |  | Hemmeffekt % (Pfotenoedem; 25 mg/kg): 33%
14 | CC(C)(C)COC(=O)COC(=O)Cc1cn(-c2ccccc2)nc1-c1ccc(Cl)cc1 [Beispiel 22] |  |  |  |  | Hemmeffekt % (Pfotenoedem; 15 mg/kg): 46%
15 | CC(C)Cc1ccc(C(C)C(=O)O)cc1 (centres unmarked) [Ibuprofen, 2-(4-Isobutylphenyl)-propionsäure, reference compound] |  |  |  | 35 | 
16 | CC(C)(CO)COC(=O)c1ccccc1Nc1cccc(C(F)(F)F)c1 [Beispiel 1, Flufenaminsäureneopentylglykolmonoester] | 2.2% | 23.7*** % | 36.8*** % | 55 | Hemmeffekt % (Pfotenoedem; 25 mg/kg): 38%
17 | CC(C(=O)O)c1ccc(-c2ccccc2)c(F)c1 (centres unmarked) [Flurbiprofen, 2-(2-Fluor-4-biphenylyl)-propionsäure, reference compound] |  |  |  | 40 | 
18 | CC(C)(C)COC(=O)Cc1cn(-c2ccccc2)nc1-c1ccc(Cl)cc1 [Beispiel 3, Lonazolacneopentylester] | 18.2* % | 31.6*** % | 34.3*** % |  | 
19 | CC(C)(C)COC(=O)Cc1ccccc1Nc1c(Cl)cccc1Cl [Beispiel 16] | 19.2* % | 40.1*** % | 43.2*** % | 36 | 
